According to patent US20230286973A1, “PROTEIN SECRETION INHIBITORS” (KEZAR LIFE SCIENCES, priority 2020, published 2023):

How the values were obtained:
[1] = system: PD1-ss+10aa/Gaussia Luciferase; assay: Dox-Induced PD1-ss-Gluc Assay; assay type: cell-based; settings: 24 hr Dox induction; 293FRT/TO cells; read-out: 24 hr Dox Inducible PD1ssGluc 293FRT/TO: Mean IC50
In short: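 The cell line was made by transfecting Flp-In 293 T-REx cells with a PD1 signal sequence+10aa–Gaussia luciferase fusion under T-REx control and selecting with hygromycin and blasticidin. Cells were seeded, and next day compound plus doxycycline was added at 37 °C, 5% CO2.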

[2] = system: TNFα-FL/Gaussia Luciferase; assay: Dox Induced TNFα-FL-Gluc Assay; assay type: cell-based; settings: for IC50: 24 hr Dox induction, 293FRT/TO cells, read-out: 24 hr Dox Inducible TNFaFLGluc 293FRT/TO: Mean IC50; for 24 hr Dox Inducible TNFaFLGluc 293FRT/TO: TNF/PD1: ratio of TNFaFLGluc IC50 to PD1ssGluc IC50
In short: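 Doxycycline-inducible Gaussia luciferase-tagged full-length TNFα (1-233) was expressed in stable Flp-In 293 T-REx cells. Compounds were co-added with doxycycline and incubated at 37 °C, 5% CO2.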

[3] = system: HER3-ss+4aa/Gaussia Luciferase; assay: Dox-Induced Her3-ss-Gluc Assay; assay type: cell-based; settings: 24 hr Dox induction; 293FRT/TO cells; read-out: 24 hr Dox Inducible Her3(ss + 4)Gluc 293FRT/TO: Mean IC50
In short: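 Reporter line: Flp-In 293 T-REx, T-REx-regulated HER3-ss+4aa fused to Gaussia luciferase. Compound co-added with doxycycline after overnight plating, 37° C., 5% CO2.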

[4] = system: IL-2-FL/Gaussia Luciferase; assay: Dox Induced IL2-FL-Gluc Assay; assay type: cell-based; settings: for IC50: 24 hr Dox induction, 293FRT/TO cells, read-out: 24 hr Dox Inducible IL2FLGluc 293FRT/TO: Mean IC50; for 24 hr Dox Inducible IL2FLGluc 293FRT/TO: IL2/PD1: ratio of IL2FLGluc IC50 to PD1ssGluc IC50
In short: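 Doxycycline induces an IL-2(1-153)–Gaussia luciferase fusion in a stable Flp-In 293 T-REx line. Compound exposure runs alongside induction at 37° C.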

[5] = system: multiple myeloma cell line NCI-H929; assay: H929 Cell Viability Assay; assay type: cell-based, human; settings: Homo sapiens, NCI-H929, 48 h, NCI-H929 cells, Celltiter-Glo
In short: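 Viability is scored by CellTiter-Glo luminescence following a 48-hour treatment at 37° C. Data for structures shown without stereochemistry refer to stereoisomer mixtures.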

[6] = system: multiple myeloma cell line U266B1; assay: U266 Cell Viability Assay; assay type: cell-based, human; settings: Homo sapiens, U-266, 48 h, U266B1 cells, Celltiter-Glo
In short: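 Viability is measured as luciferase signal from CellTiter-Glo following a 48-hour incubation with compound at 37° C. under 5% CO2. Where structures lack drawn stereochemistry, values refer to stereoisomer mixtures.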

[7] = Liver Microsome Stability Assay (rat); settings: rat liver microsomes, with NADPH, 1.0 uM compound
Protocol: (§1) Stability of a compound was assessed in the presence of liver microsomes from various sources—mouse, rat, monkey and human liver microsomes. 1.0 uM compound, 0.4% DMSO in 0.1 M Potassium Phosphate with 1.0 mg/mL liver microsomes, were incubated at 37° C. with or without 1 mM NADPH. The samples were quenched at 0, and 30 minutes.

[8] = Liver Microsome Stability Assay (mouse); settings: mouse liver microsomes, with NADPH, 1.0 uM compound
Protocol: as §1

[9] = Liver Microsome Stability Assay (human); settings: human liver microsomes, with NADPH, 1.0 uM compound
Protocol: as §1

[10] = Liver Microsome Stability Assay (monkey); settings: monkey liver microsomes, with NADPH, 1.0 uM compound
Protocol: as §1

| Structure (SMILES) | IC50 [1] | IC50 [2] | 24 hr Dox Inducible TNFaFLGluc 293FRT/TO: TNF/PD1 [2] | IC50 [3] | IC50 [4] | 24 hr Dox Inducible IL2FLGluc 293FRT/TO: IL2/PD1 [4] | EC50 [5] | EC50 [6] | Liver Microsome Stability (Multiple Species): Rat - % Remaining after 30 min w/NADPH [7] | Liver Microsome Stability (Multiple Species): Mouse - % Remaining after 30 min w/NADPH [8] | Liver Microsome Stability (Multiple Species): Human - % Remaining after 30 min w/NADPH [9] | Liver Microsome Stability (Multiple Species): Monkey - % Remaining after 30 min w/NADPH [10] |
| --- | --- | --- | --- | --- | --- | --- | --- | --- | --- | --- | --- | --- |
| CC(C)n1cnc(/C=C/Cc2csc(NC(=O)c3cccn3Cc3ccnc(F)c3)n2)c1 [Compound B106, (E)-1-((2-fluoropyridin-4-yl)methyl)-N-(4-(3-(1-isopropyl-1H-imidazol-4-yl)allyl)thiazol-2-yl)-1H-pyrrole-2-carboxamide] | 0.692 µM | > 25 µM | >36.1 | 1.28 µM | 3.01 µM | 4.3 | > 25 µM | > 25 µM | 5.01% | 0.95% | 0.59% | 0.06% |
| CC(C#N)n1cnc(/C=C/c2csc(NC(=O)c3cccn3Cc3ccnc(F)c3)n2)c1 (stereo not drawn) [Compound B107, (E)-N-(4-(2-(1-(1-cyanoethyl)-1H-imidazol-4-yl)vinyl)thiazol-2-yl)-1-((2-fluoropyridin-4-yl)methyl)-1H-pyrrole-2-carboxamide] | 0.476 µM | > 25 µM | >52.5 | > 25 µM | > 25 µM | >52 | > 25 µM | > 25 µM | 18.8% | 35.4% | 0.55% | 0.33% |
| N#CCCn1cnc(/C=C/c2csc(NC(=O)c3cccn3Cc3ccnc(F)c3)n2)c1 [Compound B108, (E)-N-(4-(2-(1-(2-cyanoethyl)-1H-imidazol-4-yl)vinyl)thiazol-2-yl)-1-((2-fluoropyridin-4-yl)methyl)-1H-pyrrole-2-carboxamide] | 6.04 µM | > 25 µM | >4.14 | > 25 µM | > 25 µM | >4.1 | > 25 µM | > 25 µM | 23.9% | 55.7% | 0.43% | 0.69% |
| NC(=O)CCn1cnc(/C=C/c2csc(NC(=O)c3cccn3Cc3ccnc(F)c3)n2)c1 [Compound B109, (E)-N-(4-(2-(1-(3-amino-3-oxopropyl)-1H-imidazol-4-yl)vinyl)thiazol-2-yl)-1-((2-fluoropyridin-4-yl)methyl)-1H-pyrrole-2-carboxamide] | > 25 µM | > 25 µM | <=>1.00 | > 25 µM | > 25 µM | <=>1.0 | > 25 µM | > 25 µM | 60.4% | 60.2% | 10.2% | 5.04% |
| CC(CC#N)n1cnc(/C=C/c2csc(NC(=O)c3cccn3Cc3ccnc(F)c3)n2)c1 (stereo not drawn) [Compound B110, (E)-N-(4-(2-(1-(1-cyanopropan-2-yl)-1H-imidazol-4-yl)vinyl)thiazol-2-yl)-1-((2-fluoropyridin-4-yl)methyl)-1H-pyrrole-2-carboxamide] | 2.21 µM | > 25 µM | >11.3 | > 25 µM | > 25 µM | >11 | > 25 µM | > 25 µM | 32.4% | 44.9% | 0.38% | 0.51% |
| CC(CC(N)=O)n1cnc(/C=C/c2csc(NC(=O)c3cccn3Cc3ccnc(F)c3)n2)c1 (stereo not drawn) [Compound B111, (E)-N-(4-(2-(1-(4-amino-4-oxobutan-2-yl)-1H-imidazol-4-yl)vinyl)thiazol-2-yl)-1-((2-fluoropyridin-4-yl)methyl)-1H-pyrrole-2-carboxamide] | > 25 µM | > 25 µM | ⇔1.00 | > 25 µM | > 25 µM | <=>1.0 | > 25 µM | > 25 µM | 75.4% | 61.7% | 9.45% | 5.79% |
| N#CCn1cnc(/C=C/c2csc(NC(=O)c3cccn3Cc3ccnc(F)c3)n2)c1 [Compound B112, (E)-N-(4-(2-(1-(cyanomethyl)-1H-imidazol-4-yl)vinyl)thiazol-2-yl)-1-((2-fluoropyridin-4-yl)methyl)-1H-pyrrole-2-carboxamide] | 0.217 µM | > 25 µM | >115 | > 25 µM | > 25 µM | >110 | > 25 µM | > 25 µM | 41.8% | 66.5% | 1.7% | 1.11% |
| CC(C(N)=O)n1cnc(/C=C/c2csc(NC(=O)c3cccn3Cc3ccnc(F)c3)n2)c1 (stereo not drawn) [Compound B113, (E)-N-(4-(2-(1-(1-amino-1-oxopropan-2-yl)-1H-imidazol-4-yl)vinyl)thiazol-2-yl)-1-((2-fluoropyridin-4-yl)methyl)-1H-pyrrole-2-carboxamide] | > 25 µM | > 25 µM | <=>1.00 | > 25 µM | > 25 µM | <=>1.0 | > 25 µM | > 25 µM | 69.7% | 68.2% | 7.08% | 3.11% |
